Laboratory results reported in patent publication US6462024B1, “Use of inhibitors of the sodium-hydrogen exchanger for the production of a medicament for decreasing undesired effects of substrates of the heart” (Aventis Pharma Deutschland GmbH, priority 1997, dated 2002).
“Also recorded” adds a separate entry of the source.

System: isolated functioning rat heart
Assay: low flow ischemia and reperfusion in the isolated functioning rat heart (working-heart mode)
Parameters: species or system Wistar-Kyoto rats
Conditions: for Incidence of ventricular fibrillations (VF) / Mean duration of ventricular fibrillations (VF) / Incidence of ventricular tachycardias (VT) / Mean duration of ventricular tachycardias and fibrillations (VT + VF): cariporide 1 μmol/l, Rulide 20 mg/kg oral; for incidence of ventricular fibrillation during the reperfusion phase / length of ventricular arrhythmias during the reperfusion phase: macrolide (Rulide) group versus macrolide-pretreated hearts treated with cariporide
Description: All investigations were carried out using hearts of Wistar-Kyoto rats (300-400 g body weight, BW). The rats were kept on a standard diet and had free access to water. The rats were anesthetized with pentobartital (60 mg/kg, i.p.), heparinized (500 I.U./100 g BW i.p.) and respirated with room air via a cannula which was inserted into the trachea. The thorax was then opened, and the heart was removed and placed in a 4° C. physiological solution. After cannulation of the aorta, the hearts were suspended in the unit and perfused in a retrograde manner according to the Langendorff method with an oxygenated (95% O2, 5% CO2), noncirculating Tyrode solution (in mmol/l: NaCl 124.6; KCl 4.0; CaCl2 2.2; MgCl2 1.1; NaHCO3 24.9; NaH2PO4 0.3; glucose 11.1) using a perfusion pressure of 51 mm Hg. The pulmonary artery and the left auricle were then cannulated and all pulmonary veins were ligated close to the auricle. After an equilibration phase of 15 minutes, the retrograde perfusion was changed into an anterograde perfusion (working-heart mode). At the same time, the filling pressure was adjusted to 11 mm Hg and the afterload to 51 mm Hg. The hearts were paced during the entire experiment at a frequency of 5 Hz. After 15 minutes in the working mode, the coronary flow was reduced by 90% in order to include a global low flow ischemia. The aortic pressure drops from 51 to 11 mm Hg in the course of this. This situation represents an angina pectoris attack in the patient. The low flow ischemia lasted 30 minutes. The hearts were then reperfused for 15 minutes in the Langendorff mode and for a further 15 minutes in the working mode. All animals received oral Rulide (macrolide, 20 mg/kg) dissolved in 1 ml of olive oil, or only 1 ml of olive oil (control), before the experiments. The Na^+/H^+ exchange inhibitor cariporide (1 μmol/l) and its vehicle (Tyrode solution) were added directly to the perfusion solution, i.e. immediately before the latter flows into the heart. The computer-controlled infusion of cariporide and the vehicle solution was begun 15 minutes before low flow ischemia and lasted for the entire experiment. The infusion quantity was 1:100th of the heart minute volume. The following parameters were measured 15 minutes before ischemia and at the end of the reperfusion phase: left ventricular pressure (LVP), left auricle pressure (LAP), aortic pressure (AP), heart-time volume (HTV), coronary flow (CF), aortic flow (AF), heart rate (HR), contractility (dP/dtmax), left ventricular pressure increase (LVPI) and the external heart work (EHW). From these values, the recovery (values after reperfusion based on the starting values before ischemia in %) was calculated. Moreover, the ECG was recorded during the entire experiment and the sum of the individual arrhythmia intervals (ventricular tachycardias and ventricular fibrillations) over the entire experimental period was formed.

[1] = pretreatment with Rulide, ischemia and reperfusion

recovery compared with the control group [1]	Compound	Incidence of ventricular fibrillations (VF) (during ischemia) [%]	Mean duration of ventricular fibrillations (VF) (during ischemia) [s]	Incidence of ventricular fibrillations (VF) (during reperfusion) [%]	Incidence of ventricular tachycardias (VT) (during reperfusion) [%]	Mean duration of ventricular tachycardias and fibrillations (VT + VF) (during reperfusion) [s]	incidence of ventricular fibrillation during the reperfusion phase [%]	length of ventricular arrhythmias during the reperfusion phase [s]	incidence and duration of ventricular arrhythmias compared with the control group [1]	effect on the arrhythmias during ischemia (during ischemia)	cardiotoxic effect of the macrolide (pretreatment of the heart with cariporide, ischemia and reperfusion)
further impairment of recovery	CC[C@H]1OC(=O)[C@H](C)[C@@H](O[C@H]2C[C@@](C)(OC)[C@@H](O)[C@H](C)O2)[C@H](C)[C@@H](O[C@@H]2O[C@H](C)C[C@H](N(C)C)[C@H]2O)[C@](C)(O)C[C@@H](C)/C(=N\OCOCCOC)[C@H](C)[C@@H](O)[C@]1(C)O [Rulide, reference compound]	100	181 ± 79	100	100	1709 ± 319	100	1709	increase in the incidence and the duration of ventricular arrhythmias		
	CC(C)c1ccc(C(=O)NC(=N)N)cc1S(C)(=O)=O [Cariporide (HOE642), cariporide]	33	38 ± 26	0	100	204 ± 32	38	198		no effect	completely prevented; also recorded: completely inhibits
